The source of these data is publication PMC10420772, “Characteristics of alanine racemase in Lactobacillus sakei ZH‐2 strain” (Food Science & Nutrition, 2023).

For data set [1], the target named is T1, rALRase (recombinant alanine racemase of Lactobacillus sakei ZH-2) (Latilactobacillus sakei, UniProt Q38V64, T117A).
T1 construct: gene alr; pCold I in E. coli BL21, His-tag purified, tag removed with Factor Xa
Briefly: racemase activity with and without PLP, D-amino acid oxidase/LDH-coupled. The format is biochemical. The settings on record: L-alanine substrate; 10 mM PLP in the standard assay, pH 9.0.

Substrate in the data set “purified protein”: C[C@H](N)C(=O)O
Briefly: purified protein. The settings on record: L-alanine 0.1-50 mM, L to D direction, standard assay 50 mM CHES-NaOH pH 9.0, 10 mM PLP, 37 °C.

With `Cc1ncc(COP(=O)(O)O)c(C=O)c1O` [pyridoxal phosphate], the “fold activity with PLP versus without” value in data set [1] is recorded as 1.5–2 times.

B1: rALRase (recombinant alanine racemase of Lactobacillus sakei ZH-2) (Latilactobacillus sakei subsp. sakei 23K; T117A) (protein)
chain: MTVGYLRPTRILVDQNAIYENIQNELKHLEGTDTVIFPVLKANAYGHGLIPVAEAAQAAGAAGFCVALLDEALALRRANFTEPILVLGITQPSEIELAAANQISLTVGSLEWLQEAAAIAQQVPYLHPVPIHLSIDSGMGRIGMRDEAELLAAYTFIKAHSDYFDFEGVFTHFATADDPDDTYFKEQSARFNQLMTALPERPRFVHVSNSATSLWHAACNGNIIRMGISLYGLNPSGNAIPDLPYPLKQALGIESELVFVKQVAAGTKIGYGATYEASEGEWIGTIPMGYADGWLRRMQGSTVLVDGQRCEIVGRICMDQMMIRLPKRYPVGTKVVFVGKSGDDEITLQEVADYADTIHYEIICDLSDRIPRVYTGLNEH
With B1, the Km in the data set “purified protein” stood at 1320 µM.
